Measurements taken from EPA's ToxRefDB 2.

Key:
rat [1] = conditions: Subchronic oral toxicity in rodents, sprague dawley, Gavage/Intubation, dose end: 90 day, group: systemic
rabbit [2] = conditions: Prenatal developmental toxicity study, new zealand white, Oral, Gavage/Intubation, dose end: 19 GD, group: maternal
rat [3] = conditions: Prenatal developmental toxicity study, sprague dawley, Oral, Gavage/Intubation, dose end: 15 GD
rat [4] = conditions: Combined chronic toxicity/carcinogenicity, sprague dawley, Oral, Feed, dose end: 104 week
rabbit [5] = conditions: Prenatal developmental toxicity study, New Zealand White, Oral, Gavage/Intubation, dose end: 19 GD, group: maternal
rabbit [6] = conditions: Prenatal developmental toxicity study, new zealand white, Oral, Gavage/Intubation, dose end: 19 GD, group: maternal; remark: listed apart in the source
rat [7] = conditions: Subchronic dermal toxicity, sprague dawley, Topical, dose end: 91 day
[8] = systemic / in life observation / clinical signs / defecation + systemic / in life observation / food consumption / food consumption + …
[9] = group: developmental, developmental / developmental malformation / bone / incomplete ossification + developmental / developmental malformation / bone / wavy
[10] = group: maternal, systemic / in life observation / body weight / body weight gain
[11] = group: cholinesterase, cholinesterase / cholinesterase / cholinesterase / erythrocyte cholinesterase (che) + cholinesterase / cholinesterase / cholinesterase / …
[12] = group: cholinesterase, cholinesterase / cholinesterase / cholinesterase / plasma cholinesterase (che)
[13] = group: systemic, systemic / in life observation / body weight / body weight gain
[14] = group: systemic, systemic / in life observation / body weight / body weight gain + systemic / clinical chemistry / cholesterol / cholesterol + systemic / …
[15] = systemic / in life observation / body weight / body weight gain + systemic / in life observation / food consumption / food consumption + …
[16] = reproductive / reproductive performance / resorptions / resorptions + systemic / in life observation / body weight / body weight gain + …
[17] = group: cholinesterase, cholinesterase / cholinesterase / cholinesterase / plasma cholinesterase (che) + cholinesterase / cholinesterase / cholinesterase / …
[18] = group: systemic, systemic / pathology microscopic / skin / hyperkeratosis + systemic / clinical chemistry / calcium / calcium + systemic / clinical chemistry…
[19] = group: systemic, systemic / pathology microscopic / skin / hyperkeratosis + systemic / clinical chemistry / glucose / glucose + systemic / in life …

Work on `CCCCNC(=O)OCC#CI` [3-Iodo-2-propynyl-N-butylcarbamate] yielded an NEL (rat [1]; systemic / in life observation / clinical signs / post-dosing rooting in bedding + systemic / organ weight / liver / relative to body weight…) of 20 mg/kg/day, an LOAEL (rat [1]; systemic / organ weight / liver / relative to body weight) of 50 mg/kg/day and an NOAEL (rat [1]; systemic / organ weight / liver / relative to body weight + systemic / in life observation / body weight / body weight gain + systemic / in …) of 20 mg/kg/day. For the same molecule, the LEL (rat [1]; systemic / organ weight / liver / relative to body weight + systemic / in life observation / clinical signs / post-dosing rooting in bedding…) was 50 mg/kg/day, the LEL (rabbit [2]; [8]) was 20 mg/kg/day and the NEL (rabbit [2]; [8]) was 10 mg/kg/day. It also gave an NOAEL (rabbit [2]; [8]) of 20 mg/kg/day, an LOAEL (rabbit [2]; systemic / in life observation / clinical signs / defecation + systemic / pathology gross / stomach / discolored + reproductive / …) of 40 mg/kg/day and an LEL (rat [3]; [9]) of 125 mg/kg/day. It also gave an LOAEL (rat [3]; [9]) of 125 mg/kg/day, an NEL (rat [3]; [9]) of 50 mg/kg/day and an NOAEL (rat [3]; [9]) of 50 mg/kg/day. For the same molecule, the LEL (rat [3]; [10]) was 125 mg/kg/day, the LOAEL (rat [3]; [10]) was 125 mg/kg/day and the NEL (rat [3]; [10]) was 50 mg/kg/day. The NOAEL (rat [3]; [10]) was 50 mg/kg/day, the LOAEL (rat [4]; [11]) was greater than 80.1 mg/kg/day and the NOAEL (rat [4]; [11]) was no less than 80.1 mg/kg/day. It also gave an LEL (rat [4]; [12]) of 20.1 mg/kg/day, an NEL (rat [4]; [12]) of less than 20.1 mg/kg/day and an LOAEL (rat [4]; [13]) of 20.1 mg/kg/day. For the same molecule, the NOAEL (rat [4]; [13]) was less than 20.1 mg/kg/day, the LEL (rat [4]; [14]) was 20.1 mg/kg/day and the NEL (rat [4]; [14]) was less than 20.1 mg/kg/day. The LOAEL (rabbit [5]; systemic / in life observation / body weight / body weight gain + systemic / in life observation / food consumption / food consumption) was 20 mg/kg/day, the LEL (rabbit [5]; [15]) was 20 mg/kg/day and the NEL (rabbit [5]; [15]) was 10 mg/kg/day. For the same molecule, the NOAEL (rabbit [5]; [15]) was 10 mg/kg/day, the LEL (rabbit [6]; reproductive / reproductive performance / resorptions / resorptions) was 20 mg/kg/day and the NEL (rabbit [6]; [16]) was 2 mg/kg/day. It also gave an NOAEL (rabbit [6]; [16]) of 20 mg/kg/day, an LOAEL (rabbit [6]; systemic / in life observation / body weight / body weight gain + systemic / in life observation / clinical signs / [other] + systemic / in …) of 50 mg/kg/day and an NEL (rat [7]; [12]) of 200 mg/kg/day. It also gave an LEL (rat [7]; [17]) of 500 mg/kg/day, an LOAEL (rat [7]; [17]) greater than 500 mg/kg/day and an NOAEL (rat [7]; [17]) of no less than 500 mg/kg/day. The NEL (rat [7]; [18]) was 50 mg/kg/day, the NOAEL (rat [7]; [18]) was 50 mg/kg/day and the LEL (rat [7]; [19]) was 200 mg/kg/day. It also gave an LOAEL (rat [7]; [19]) of 200 mg/kg/day.
